The values that follow come from US20240409585A1, “MACROCYCLIC IMMUNOMODULATORS” (priority 2021, published 2024).

SMILES strings stand for the structures. Numbered stars: 1 amine (or outer) side, 2 acyl side, 3 side chain; on linkers, the order of the positions; unused ones are H or OH. Bridge positions count the residues as written; N and C are the ends. Square brackets hold non-standard residues; d marks the D form. Peptide text beside a SMILES is read from it. * marks the point of attachment. X26 = O=C([C@H](Cc1ccc(-c2cccc(S(=O)(=O)N3CCOCC3)c2)cc1)N[*:1])[*:2]; Bip(4'-COOH) = N[C@@H](Cc1ccc(-c2ccc(C(=O)O)cc2)cc1)C(=O)O; Phe(3-CF3) = N[C@@H](Cc1cccc(C(F)(F)F)c1)C(=O)O; Ala(morpholin-4-yl) = N[C@@H](CN1CCOCC1)C(=O)O; Phe(4-COOH) = N[C@@H](Cc1ccc(C(=O)O)cc1)C(=O)O; Phe(3,4-F2) = N[C@@H](Cc1ccc(F)c(F)c1)C(=O)O; Bip = N[C@@H](Cc1ccc(-c2ccccc2)cc1)C(=O)O; Abu(3R-NH2) = C[C@@H](N)[C@H](N)C(=O)O; Phe(3-Me) = Cc1cccc(C[C@H](N)C(=O)O)c1; Glutaryl = O=C(CCCC(=O)[*:2])[*:1]; Val(3-OH) = CC(C)(O)[C@H](N)C(=O)O; hPhe = N[C@@H](CCc1ccccc1)C(=O)O; Cha = N[C@@H](CC1CCCCC1)C(=O)O; Suc = O=C(CCC(=O)[*:2])[*:1]; Carboxymethyl = O=C(O)C*; NMeA = CN[C@@H](C)C(=O)O; Orn = NCCC[C@H](N)C(=O)O; Dab = NCC[C@H](N)C(=O)O; Dap = NC[C@H](N)C(=O)O

The target in the first assay is T1, Alexa fluor-647 labeled human PD-L1-Ig binding to Jurkat cell line over-expressing human PD-1 (Homo sapiens, UniProt Q15116).
T1 construct: expressed in transfected cells; host or cells: Jurkat
T1 sequence (Q15116 25-288): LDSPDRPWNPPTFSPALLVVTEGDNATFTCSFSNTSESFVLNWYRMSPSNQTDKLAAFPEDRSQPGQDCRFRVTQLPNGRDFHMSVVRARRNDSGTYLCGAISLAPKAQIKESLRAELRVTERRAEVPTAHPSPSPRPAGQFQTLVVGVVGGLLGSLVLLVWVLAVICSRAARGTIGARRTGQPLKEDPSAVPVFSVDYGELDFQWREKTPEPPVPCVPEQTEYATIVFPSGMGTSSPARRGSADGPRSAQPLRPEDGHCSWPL
The assay is described as follows: Jurkat-PD-1 Cell Binding High-Content Screening Assay (CBA): Method 3 (Alexa fluor-647 labeled PD-L1-Ig). Conditions: Jurkat-PD-1 cells, Alexa fluor-647 labeled PD-L1-Ig 177 nM; head μM; read-out: CBA Method 3 μM. A digest of the protocol: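 Jurkat cells over-expressing human PD-1 in RPMI/10% FCS were preincubated 2 h at 37 °C with compound, then exposed 1 h to Alexa fluor-647 labeled human PD-L1-Ig (177 nM final). Cells fixed in 4% paraformaldehyde with Hoechst 33342 and binding quantified by high-content imaging.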
As to `Cc1cccc(C[C@@H]2NC(=O)[C@H](CC(=O)O)NC(=O)[C@H](Cc3ccc(OCC(=O)O)cc3)NC(=O)[C@H](Cc3ccc(F)c(F)c3)NC(=O)CSC[C@@H](C(=O)N[C@@H](CCN)C(N)=O)NC(=O)[C@H](CCCN)NC(=O)[C@H](C(C)C)NC(=O)[C@H](CC3CCCCC3)NC(=O)[C@H](CCN)NC(=O)[C@@H](CC(C)C)NC(=O)[C@H](C)N(C)C(=O)[C@H](CCC(N)=O)NC(=O)[C@H](Cc3ccc(-c4ccccc4)cc3)NC(=O)[C@H](Cc3ccc(C(=O)O)cc3)NC2=O)c1` [Example 5285] ({CH2CO}-[Phe(3,4-F2)]Y(Carboxymethyl)D[Phe(3-Me)][Phe(4-COOH)][Bip]Q[NMeA][dL][Dab][Cha]V[Orn]C[Dab]-NH2; thioether N-14), the IC50 came to 0.3 µM. On the same count and under the same terms, next, `Cc1cccc(C[C@@H]2NC(=O)[C@H](CC(=O)O)NC(=O)[C@H](Cc3ccc(OCC(=O)O)cc3)NC(=O)[C@H](CN)NC(=O)CSC[C@@H](C(=O)N[C@@H](CCN)C(N)=O)NC(=O)[C@H](CCCN)NC(=O)[C@H](C(C)C)NC(=O)[C@H](CC3CCCCC3)NC(=O)[C@H](CCN)NC(=O)[C@@H](CC(C)C)NC(=O)[C@H](C)N(C)C(=O)[C@H](CCC(N)=O)NC(=O)[C@H](Cc3ccc(-c4ccccc4)cc3)NC(=O)[C@H](Cc3ccc(C(=O)O)cc3)NC2=O)c1` [Example 5178] ({CH2CO}-[Dap]Y(Carboxymethyl)D[Phe(3-Me)][Phe(4-COOH)][Bip]Q[NMeA][dL][Dab][Cha]V[Orn]C[Dab]-NH2; thioether N-14): 0.3 µM. Same read-out and setting: under `Cc1cccc(C[C@@H]2NC(=O)[C@H](CC(=O)O)NC(=O)[C@H](Cc3ccc(C(=O)O)cc3)NC(=O)[C@H](C)NC(=O)CSC[C@@H](C(=O)N[C@@H](CCN)C(N)=O)NC(=O)[C@H](CCC(=O)O)NC(=O)[C@H](C(C)C)NC(=O)[C@H](CC3CCCCC3)NC(=O)[C@H](CCN)NC(=O)[C@@H](CC(C)C)NC(=O)[C@H](C)N(C)C(=O)[C@H](Cc3ccc(C(=O)O)cc3)NC(=O)[C@H](Cc3ccc(-c4ccccc4)cc3)NC(=O)[C@H](Cc3ccc(C(=O)O)cc3)NC2=O)c1` [Example 5136] ({CH2CO}-A[Phe(4-COOH)]D[Phe(3-Me)][Phe(4-COOH)][Bip][Phe(4-COOH)][NMeA][dL][Dab][Cha]VEC[Dab]-NH2; thioether N-14) stands 0.02 µM; under `CC(C)C[C@H]1NC(=O)[C@H](C)N(C)C(=O)[C@H](CCC(N)=O)NC(=O)[C@H](Cc2ccc(-c3ccccc3)cc2)NC(=O)[C@H](CCc2ccccc2)NC(=O)[C@H](Cc2cccc(C(F)(F)F)c2)NC(=O)[C@H](CC(=O)N[C@@H](CC(=O)O)C(=O)O)NC(=O)[C@H](Cc2ccc(OCC(=O)O)cc2)NC(=O)[C@H](CN2CCOCC2)NC(=O)CSC[C@@H](C(=O)N[C@@H](CCN)C(N)=O)NC(=O)[C@H](CCCN)NC(=O)[C@H](C(C)C)NC(=O)[C@H](CC2CCCCC2)NC(=O)[C@H](CCN)NC1=O` [Example 5294] ({CH2CO}-[Ala(morpholin-4-yl)]Y(Carboxymethyl)D(Asp)[Phe(3-CF3)][hPhe][Bip]Q[NMeA][dL][Dab][Cha]V[Orn]C[Dab]-NH2; thioether N-14), 0.04 µM; under `CC(C)C[C@H]1NC(=O)[C@H](C)N(C)C(=O)[C@H](Cc2ccc(C(=O)O)cc2)NC(=O)[C@H](Cc2ccc(-c3ccccc3)cc2)NC(=O)[C@H](CCc2ccccc2)NC(=O)[C@H](Cc2cccc(C(F)(F)F)c2)NC(=O)[C@H](CC(=O)O)NC(=O)[C@H](Cc2ccc(C(=O)O)cc2)NC(=O)[C@H](CN2CCOCC2)NC(=O)CSC[C@@H](C(=O)N[C@@H](CCN)C(N)=O)NC(=O)[C@H](CNC(=O)CCC(=O)O)NC(=O)[C@H](C(C)C)NC(=O)[C@H](CC2CCCCC2)NC(=O)[C@H](CCN)NC1=O` [Example 5210] ({CH2CO}-[Ala(morpholin-4-yl)][Phe(4-COOH)]D[Phe(3-CF3)][hPhe][Bip][Phe(4-COOH)][NMeA][dL][Dab][Cha]V[Dap](Suc)C[Dab]-NH2; thioether N-14), 0.14 µM. Same read-out and setting: next, `CC(C)C[C@H]1NC(=O)[C@H](C)N(C)C(=O)[C@H](CCC(N)=O)NC(=O)[C@H](Cc2ccc(-c3ccccc3)cc2)NC(=O)[C@H](CCc2ccccc2)NC(=O)[C@H](Cc2cccc(C(F)(F)F)c2)NC(=O)[C@H](CC(=O)O)NC(=O)[C@H](Cc2ccc(OCC(=O)O)cc2)NC(=O)[C@H]([C@@H](C)N)NC(=O)CSC[C@@H](C(=O)N[C@@H](CCN)C(N)=O)NC(=O)[C@H](CCCN)NC(=O)[C@H](C(C)C)NC(=O)[C@H](CC2CCCCC2)NC(=O)[C@H](CCN)NC1=O` [Example 5219] ({CH2CO}-[Abu(3R-NH2)]Y(Carboxymethyl)D[Phe(3-CF3)][hPhe][Bip]Q[NMeA][dL][Dab][Cha]V[Orn]C[Dab]-NH2; thioether N-14): 0.1 µM; `Cc1cccc(C[C@@H]2NC(=O)[C@H](CC(=O)O)NC(=O)[C@H](Cc3ccc(OCC(=O)O)cc3)NC(=O)[C@H](CN3CCOCC3)NC(=O)CSC[C@@H](C(=O)N[C@@H](CCN)C(N)=O)NC(=O)[C@H](CCCN)NC(=O)[C@H](C(C)C)NC(=O)[C@H](CC3CCCCC3)NC(=O)[C@H](CCN)NC(=O)[C@@H](CC(C)C)NC(=O)[C@H](C)N(C)C(=O)[C@H](CCC(N)=O)NC(=O)[C@H](Cc3ccc(-c4ccccc4)cc3)NC(=O)[C@H](Cc3ccc(-c4cccc(S(=O)(=O)N5CCOCC5)c4)cc3)NC2=O)c1` [Example 5107] ({CH2CO}-[Ala(morpholin-4-yl)]Y(Carboxymethyl)D[Phe(3-Me)][X26][Bip]Q[NMeA][dL][Dab][Cha]V[Orn]C[Dab]-NH2; thioether N-14): 0.33 µM. In the case of `Cc1cccc(C[C@@H]2NC(=O)[C@H](CC(=O)O)NC(=O)[C@H](Cc3ccc(-c4ccc(C(=O)O)cc4)cc3)NC(=O)[C@H](C)NC(=O)CSC[C@@H](C(=O)N[C@@H](CCN)C(N)=O)NC(=O)[C@H](CO)NC(=O)[C@H](C(C)(C)O)NC(=O)[C@H](CC3CCCCC3)NC(=O)[C@H](Cc3cnc[nH]3)NC(=O)[C@@H](CC(C)C)NC(=O)[C@H](C)N(C)C(=O)[C@H](Cc3ccc(C(=O)O)cc3)NC(=O)[C@H](Cc3ccc(-c4ccccc4)cc3)NC(=O)[C@H](Cc3ccc(-c4ccc(C(=O)O)cc4)cc3)NC2=O)c1` [Example 5121] ({CH2CO}-A[Bip(4'-COOH)]D[Phe(3-Me)][Bip(4'-COOH)][Bip][Phe(4-COOH)][NMeA][dL]H[Cha][Val(3-OH)]SC[Dab]-NH2; thioether N-14), the IC50 was 0.07 µM.

Staying with this assay, now noted: Jurkat-PD-1 cells, Alexa fluor-647 labeled PD-L1-Ig 177 nM; nM; read-out: CBA Method 3.
Turning to `CC(C)C[C@H]1NC(=O)[C@H](C)N(C)C(=O)[C@H](Cc2ccc(C(=O)O)cc2)NC(=O)[C@H](Cc2ccc(-c3ccccc3)cc2)NC(=O)[C@H](Cc2ccc(C(=O)O)cc2)NC(=O)[C@H](Cc2cccc(C(F)(F)F)c2)NC(=O)[C@H](CC(=O)O)NC(=O)[C@H](Cc2ccc(C(=O)O)cc2)NC(=O)[C@H](CN2CCOCC2)NC(=O)CSC[C@@H](C(=O)N[C@@H](CCN)C(N)=O)NC(=O)[C@H](CNC(=O)CCCC(=O)O)NC(=O)[C@H](C(C)C)NC(=O)[C@H](CC2CCCCC2)NC(=O)[C@H](CCN)NC1=O` [Example 5234] ({CH2CO}-[Ala(morpholin-4-yl)][Phe(4-COOH)]D[Phe(3-CF3)][Phe(4-COOH)][Bip][Phe(4-COOH)][NMeA][dL][Dab][Cha]V[Dap](Glutaryl)C[Dab]-NH2; thioether N-14), the IC50 amounted to 0.0034 µM. The same measure, in the same setting: under `CC(C)C[C@H]1NC(=O)[C@H](C)N(C)C(=O)[C@H](CCC(N)=O)NC(=O)[C@H](Cc2ccc(-c3ccccc3)cc2)NC(=O)[C@H](CCc2ccccc2)NC(=O)[C@H](Cc2cccc(C(F)(F)F)c2)NC(=O)[C@H](CC(=O)O)NC(=O)[C@H](CCC(N)=O)NC(=O)[C@H]([C@@H](C)N)NC(=O)CSC[C@@H](C(=O)N[C@@H](CCN)C(N)=O)NC(=O)[C@H](CCCN)NC(=O)[C@H](C(C)C)NC(=O)[C@H](CC2CCCCC2)NC(=O)[C@H](CCN)NC1=O` [Example 5247] ({CH2CO}-[Abu(3R-NH2)]QD[Phe(3-CF3)][hPhe][Bip]Q[NMeA][dL][Dab][Cha]V[Orn]C[Dab]-NH2; thioether N-14) stands 0.0017 µM; under `CC(C)C[C@H]1NC(=O)[C@H](C)N(C)C(=O)[C@H](CCC(N)=O)NC(=O)[C@H](Cc2ccc(-c3ccccc3)cc2)NC(=O)[C@H](CCc2ccccc2)NC(=O)[C@H](Cc2cccc(C(F)(F)F)c2)NC(=O)[C@H](CC(=O)N[C@@H](CC(=O)O)C(=O)O)NC(=O)[C@H](Cc2ccc(OCC(=O)O)cc2)NC(=O)[C@H](CN2CCOCC2)NC(=O)CSC[C@@H](C(=O)N[C@@H](CCN)C(N)=O)NC(=O)[C@H](CCCN)NC(=O)[C@H](C(C)C)NC(=O)[C@H](CC2CCCCC2)NC(=O)[C@H](CCN)NC1=O` [Example 5280] ({CH2CO}-[Ala(morpholin-4-yl)]Y(Carboxymethyl)D(Asp)[Phe(3-CF3)][hPhe][Bip]Q[NMeA][dL][Dab][Cha]V[Orn]C[Dab]-NH2; thioether N-14), 0.0046 µM; under `Cc1cccc(C[C@@H]2NC(=O)[C@H](CC(=O)O)NC(=O)[C@H](Cc3ccc(OCC(=O)O)cc3)NC(=O)[C@H](CCN)NC(=O)CSC[C@@H](C(=O)N[C@@H](CCN)C(N)=O)NC(=O)[C@H](CCCN)NC(=O)[C@H](C(C)C)NC(=O)[C@H](CC3CCCCC3)NC(=O)[C@H](CCN)NC(=O)[C@@H](CC(C)C)NC(=O)[C@H](C)N(C)C(=O)[C@H](CCC(N)=O)NC(=O)[C@H](Cc3ccc(-c4ccccc4)cc3)NC(=O)[C@H](Cc3ccc(C(=O)O)cc3)NC2=O)c1` [Example 5179] ({CH2CO}-[Dab]Y(Carboxymethyl)D[Phe(3-Me)][Phe(4-COOH)][Bip]Q[NMeA][dL][Dab][Cha]V[Orn]C[Dab]-NH2; thioether N-14), 0.0039 µM.
